Laboratory results: patent US20100254940A1, “Compositions and Methods for Regulating an Immune Response in a Subject” (INNATE PHARMA, S.A., priority 2002, published 2010)
pEC50: −log10 of the molar value.

Columns and labels:
[1] = test system: γδ T cells; assay: In vivo γδ T cell amplification after successive i.v. HDMAPP/IL2 injections in cynomolgus monkeys; set-up: species or system cynomolgus monkeys (M. fascicularis); conditions: day 5
Protocol: Eight purpose bred healthy male cynomolgus monkeys (M. fascicularis). At the beginning of the study, body weights ranged from 3.5 to 4 kg and ages from 37 to 41 months.
Animals were anaesthetised with intra-muscular injection of 6 mg/kg Zoletil™ 100 (Tiletamine-Zolazepam, Virbac, Carros, France) before any perfusion.
HDMAPP was administered i.v. to male cynomolgus monkeys by 30-minute perfusions in a total volume of 50 ml with Ringer Lactate as vehicle. […]
The animals were co-treated subcutaneously with 0.6M IU IL2 in sterile water per day for 5 days.
Blood was drawn pre-dose and at day 4, 5, 7, 11 and 14 after HDMAPP perfusion for flow cytometry analysis of blood cellular populations of interest.
Peripheral γδ lymphocytes were analysed by flow cytometry on total monkey blood, after triple staining with anti-Vgamma9FITC, anti-CD3PE and anti-CD69PC5 antibodies (Vgamma9-FITC: 7B6 clone, produced, purified and FITC-coupled at Innate Pharma; CD3-PE: SP34 clone, BD Biosciences Pharmingen, Le Pont de Claix, France; CD69PC5: FN50 clone, Immunotech-Beckman-Coulter, Marseilles, France).
Briefly, 50 μl monkey blood was incubated 15 min at RT with 10 μl anti-gamma9-FITC, 5 μl anti-CD3-PE and 5 μl anti-CD69PC5 antibodies. Antibodies were washed with 3 ml 1×PBS, centrifuged for 4 min at 1300 rpm at RT and supernatant was discarded. Red cells were lysed with the OptiLyse C reagent (Immunotech-Beckman-Coulter, Marseilles, France) according to the manufacturer's instructions. At the final step, stained white blood cells were recovered by centrifugation and resuspended in 300 μl 1×PBS+0.2% PFA. Immediately before analysis, 50 μl calibrated Flow Count™ Fluorospheres (Immunotech-Beckman-Coulter, Marseilles, France) were added to the cells for absolute number counting of the populations of interest.

[2] = test system: γδ T cell; assay: In vitro TNFα release assay, γδ T cell amplification from human PBMCs (in the presence of rhIL2); format: cell-based
Protocol: The in vitro biological activity of γδ T cell amplification from human PBMCs (in the presence of rhIL2) was assessed using a TNFα release assay.
Cytokine secretion and cytolytic activity can be assessed using any appropriate in vitro assay, or those provided in the examples herein. For example, cytokine secretion can be determined according to the methods described in Espinosa et al. (J. Biol. Chem., 2001, Vol. 276, Issue 21, 18337-18344), describing measurement of TNF-α release in a bioassay using TNF-α-sensitive cells. Briefly, 10^4 γδT cells/well were incubated with stimulus plus 25 units of IL2/well in 100 μl of culture medium during 24 h at 37° C. Then, 50 μl of supernatant were added to 50 μl of WEHI cells plated at 3×10^4 cells/well in culture medium plus actinomycin D (2 μg/ml) and LiCl (40 mM) and incubated for 20 h at 37° C. Viability of the TNF-α-sensitive cells and measured with a 3-(4,5-dimethylthiazol-2-yl)-2,5-diphenyltetrazolium bromide assay. 50 μl of 3-(4,5-dimethylthiazol-2-yl)-2,5-diphenyltetrazolium bromide (Sigma; 2.5 mg/ml in phosphate-buffered saline) per well were added, and after 4 h of incubation at 37° C., 50 μl of solubilization buffer (20% SDS, 66% dimethyl formamide, pH 4.7) were added, and absorbance (570 nm) was measured. Levels of TNF-α release were then calculated from a standard curve obtained using purified human rTNF-α (PeproTech, Inc., Rocky Hill, N.J.). Interferon-γ released by activated T cells was measured by a sandwich enzyme-linked immunosorbent assay. 5×10^4 γδT cells/well were incubated with stimulus plus 25 units of IL2/well in 100 μl of culture medium during 24 h at 37° C. Then, 50 μl of supernatant were harvested for enzyme-linked immunosorbent assay using mouse monoclonal antibodies (BIOSOURCE, Camarillo, Calif.). […]
BrHPP and HDMAPP bioactivity were compared using in vitro and in vivo assays. The in vitro biological activity of γδ T cell amplification from human PBMCs (in the presence of rhIL2) was assessed using a TNFα release assay.

[3] = test system: Vγ9/Vδ2 T cells; conditions: reported; cited from earlier work
[4] = test system: γδ T cell; assay: γδ T cell amplification from human PBMCs, counting γδ T cell using flow cytometry (given as in vivo EC50); format: cell-based; conditions: for pEC50: γδ T cell amplification from human PBMCs, flow cytometry count
Protocol: The biological activity of γδ T cell amplification from human PBMCs was assessed by counting γδ T cell using flow cytometry.
In vitro proliferation assays and in vitro TNFα release assay are performed essentially as described in Example 3.

[5] = test system: γδ T cells; conditions: Wilhelm et al., 2003; cited from earlier work

pEC50 ([2]; T-cell, TNFα release assay, human PBMCs, rhIL2) | SMILES | γδ cells among CD3+ ([1]; first of 4 successive injections, 5 weeks apart, 2.6 mg/kg) | γδ cells among CD3+ ([1]; fourth of 4 successive injections) [%] | γδ cells among CD3+ ([1]; second of 4 successive injections) [%] | γδ cells among CD3+ ([1]; third of 4 successive injections) | difference in potency ([2]; HDMAPP vs BrHPP, in vitro EC50) [fold] | pEC50 [3] | difference in potency ([4]; HDMAPP vs BrHPP) [log] | pEC50 [4] | increase in γδ T cell count [5] [fold]
~9.22 | C/C(=C\COP(=O)(O)OP(=O)(O)O)CO [HDMAPP, (E)-4-hydroxy-3-methyl-2-butenyl pyrophosphate] | approx. 60% | ~40 | ~55 | approx. 60% | ~50 | ~10.00 | ~2 | ~11.30 | –
– | O=P(O)(O)C(O)(Cn1ccnc1)P(=O)(O)O [Zoledronate®, reference compound] | – | – | – | – | – | – | – | ~6.00 | –
– | NCCC(O)(P(=O)(O)O)P(=O)(O)O [pamidronate] | – | – | – | – | – | – | – | – | ≤ 2
